Data published in ChEMBL document CHEMBL1129123, “Drupangtonine, a novel antileukemic alkaloid from Cephalotaxus harringtonia var. drupacea” (Bioorg Med Chem Lett, 1996).
Values after ≈ are worked out from the molar mass of the structure shown.

system: P388; test: Antileukemic activity against P-388 leukemia cells.; format: functional, cell-based; details: Mus musculus

Row | Structure (SMILES) | IC50 [µg/mL]
1 | COC(=O)C[C@](O)(CCCC(C)(C)O)C(=O)O[C@@H]1C(OC)=CC23CCCN2CCc2cc4c(cc2[C@H]13)OCO4 (single isomer, unassigned) [OMACETAXINE MEPESUCCINATE] | 0.017 (≈ 0.0312 µM)
2 | COC(=O)C[C@](O)(CCC(C)(C)O)C(=O)O[C@@H]1C(OC)=CC23CCCN2CCc2cc4c(cc2[C@H]13)OCO4 (single isomer, unassigned) [HARRINGTONINE] | 0.032 (≈ 0.0602 µM)
3 | COC(=O)C[C@](O)(CCC(C)C)C(=O)O[C@H]1[C@H]2c3cc4c(cc3[C@H]3CN5CCC[C@]25C[C@]1(OC)O3)OCO4 | 0.007 (≈ 0.0132 µM)
4 | COC(=O)C[C@](O)(CCC(C)C)C(=O)O[C@@H]1C(OC)=CC23CCCN2CCc2cc4c(cc2[C@H]13)OCO4 (single isomer, unassigned) [DEOXYHARRINGTONINE] | 0.0075 (≈ 0.0145 µM)
